Assay results taken from ChEMBL document CHEMBL3232941, “Docking and SAR studies of calystegines: binding orientation and influence on pharmacological chaperone effects for Gaucher's disease” (Bioorg Med Chem, 2014).

Experiments:
[1] = target: T1, Lysosomal acid glucosylceramidase (Homo sapiens, UniProt P04062); test: Inhibition of human lysosomal beta-glucocerebrosidase using 4-methylumbelliferyl-beta-D-glucopyranoside as substrate preincubated for 45 mins before substrate addition measured after 30 mins by fluorescence spectrophotometer analysis
T1 sequence (P04062 whole entry): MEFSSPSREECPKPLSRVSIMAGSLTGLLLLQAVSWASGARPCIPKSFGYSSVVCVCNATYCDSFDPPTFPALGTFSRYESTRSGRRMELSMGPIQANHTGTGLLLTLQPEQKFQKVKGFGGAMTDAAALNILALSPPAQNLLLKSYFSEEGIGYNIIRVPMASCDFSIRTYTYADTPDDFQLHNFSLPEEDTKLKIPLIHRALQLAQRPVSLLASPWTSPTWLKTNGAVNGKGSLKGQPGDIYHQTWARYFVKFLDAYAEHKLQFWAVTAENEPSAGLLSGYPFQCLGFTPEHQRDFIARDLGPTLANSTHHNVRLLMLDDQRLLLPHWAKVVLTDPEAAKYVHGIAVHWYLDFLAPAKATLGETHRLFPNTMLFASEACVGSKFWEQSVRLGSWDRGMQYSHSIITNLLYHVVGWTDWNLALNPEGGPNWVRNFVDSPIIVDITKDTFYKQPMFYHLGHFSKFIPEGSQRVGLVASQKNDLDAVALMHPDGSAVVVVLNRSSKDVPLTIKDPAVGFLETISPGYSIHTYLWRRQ

[2] = target: T1, Lysosomal acid glucosylceramidase; test: Competitive inhibition of human lysosomal beta-glucocerebrosidase using 4-methylumbelliferyl-beta-D-glucopyranoside as substrate preincubated for 45 mins before substrate addition measured after 30 mins by double-reciprocal plot analysis
[3] = target: T2, Lysosomal acid glucosylceramidase (Homo sapiens) (UniProt P04062); test: Inhibition of human lysosomal beta-glucocerebrosidase using 4-methylumbelliferyl-beta-D-glucopyranoside as substrate at 1000 uM preincubated for 45 mins before substrate addition measured after 30 mins by fluorescence spectrophotometer analysis
T2 sequence (whole entry): T1 sequence (P04062 whole entry)

SMILES | IC50 [1] | Ki [2] | inhibition [3]
O[C@@H]1[C@H](O)[C@H]2CC[C@](O)(N2)[C@H]1O | 175 µM | 98 µM | 
O[C@@H]1C[C@H]2CC[C@](O)(N2)[C@H]1O | 16 µM | 6.3 µM | 
O[C@@H]1[C@@H](O)[C@H]2CC[C@](O)(N2)[C@@H]1O | 616 µM | 199 µM | 
O[C@@H]1[C@@H](O)C[C@]2(O)CC[C@H]1N2 |  |  | < 50%
O[C@@H]1[C@@H](O)[C@H](O)[C@]2(O)CC[C@H]1N2 [CALYSTEGINE B2] | 5.1 µM | 3.8 µM | 
